These results are taken from patent publication US8703811B2, “Small molecule inhibitors of Plasmodium falciparum dihydroorotate dehydrogenase” (Genzyme Corporation, priority 2008, dated 2014).

≈ marks a conversion by molar mass, not a printed value. Read-outs that look alike come from different tables or passages of the source.

One series is described as follows: Permeability. The format is in vitro ADME. The conditions noted are these: for Papp: Caco-2. On the procedure:
Permeability assays using the Caco-2 colon carcinoma cell line are being used throughout the pharmaceutical industry to estimate the ability of potential drug compounds to cross the intestinal epithelium. Caco-2 cell permeability studies are performed using Caco-2 cell monolayers grown on microporous membranes in multiwell insert systems. With the inserts suspended in the wells of multiwell plates, test compounds can be added to either the upper (apical) or lower (basolateral) chamber to measure permeability in the absorptive (apical to basolateral) or secretive (basolateral to apical) directions. Samples are then taken from the opposite chamber at various time intervals to measure the amount of test compound that has crossed the cell monolayer. A representative method to generate permeability data similar to that in Table 3 can be found in Alsenz, J; Haenel, E. “Development of a 7-Day, 96-Well Caco-2 Permeability Assay with High-Throughput Direct UV Compound Analysis.” Pharmaceutical Research 2003 20(12): p 1961-1969.
Parallel artificial membrane permeability assay (PAMPA) utilizes a simple phospholipid-coated filter disc to measure membrane permeability. It was developed as an alternative to the low throughput. Caco-2 cell permeability assay used to correlate passive permeability with in vivo oral absorption. A representative publication disclosing this method is Kerns, E H; Di, L; Petusky, S; Farris, M; Ley, R; Jupp, P. “Combined application of parallel artificial membrane permeability assay and Caco-2 permeability assays in drug discovery.” J. Pharma Sci. 2004, 93 (6), pages 1440-53.
Cell culture methods (e.g. Caco-2, HT-29 and MDC) and physicochemical methods such as PAMPA and immobilized artificial membrane (IAM) columns are known in the art and can be used to obtain data such as that in Table 3. Hidalgo, I J; “Assessing the absorption of new pharmaceuticals.” Curr Top Med. Chem. 2001 November; 1(5): p 385-401.
(In general: Caco-2 monolayers are a common model of the intestinal barrier.)

The next series is described as follows: Log D measurement. It counts as physicochemical. The source says: Many standard techniques are known in the art to establish the distribution coefficient of a compound between two particular solvents. The following description is one such technique that could be used to determine the distribution coefficient: The shake-flask method, which consists of dissolving some of the compound in a volume of octanol and water, then physically shaking the mixture and allowing the two solvents to fully separate. The concentration of the compound in each solvent is then measured. The most common method of measuring the distribution of the solute is by HPLC or UV/Vis spectroscopic techniques.

Another series in a line: Solubility measurement. It counts as physicochemical. The source says:
Many standard techniques are known in the art to establish the solubility of a compound in a particular solvent. The following description is one such technique that could be used to determine the solubility: Equilibrium solubility measurements start with the solid form of the compound (crystalline form preferred). The powder is physically mixed with an aqueous buffer (defined pH) until equilibrium is reached. Either centrifugation or filtration can be used to separate the solution from the remaining solid. The amount dissolved in the solution can be determined by any one of many known methods including HPLC or UV/Vis spectroscopic techniques.

Another series has as its target pfDHODH (Plasmodium falciparum (isolate 3D7), UniProt Q08210). The series is described as follows: DHODH chromogen reduction (DCIP) assay, pfDHODH. The format is biochemical, P. falciparum. The conditions noted are these: for IC50: read-out: pfDHODH IC50.
The nature of series [1]: Renal Proximal Tubule Epithelial Cell Toxicity Screen. It counts as cell-based. As to the method:
The Renal Proximal Tubule Epithelial Cell Toxicity Screen is designed to determine whether compound mixtures, breakouts or single compounds are toxic to normal renal epithelial cells. […] Basically, the screen consists of plating renal epithelial cells, exposing them to the desired compound(s) for 4 days and measuring cell viability using the Alamar Blue reagent.
Harvested Kidney Epithelial cells were diluted in REGM to 1.5×10^4 cells/mL. […] NOTE: One plate, the T=0 plate required that 20-30 wells be seeded, and all the other plates had 96 wells seeded. Plates were incubated in 37° C./5% CO2 incubator for 24 hours.
Alamar Blue solution (25 μL/well) was added to the T=0 plate and mixed. The plate was incubated in 37° C./5% CO2 incubator for 4 hours, mixed and then the fluorescence was measured. 10% Tween 20 stock (10 μL) was added into rows A-D in column 1 (positive control). DMSO (0.5 μL) was added into column 2 (negative control). Compounds were placed into designated wells for desired testing as follows:
Plates were mixed on the shaker, and then incubated in 37° C./5% CO2 incubator for 96 hours. Day 6:
Alamar Blue solution (25 μL/well) was added to the plates containing the compounds and mixed. Plates were incubated in 37° C./5% CO2 incubator for 4 hours, mixed and the fluorescence was measured.

The next series relates to P. falciparum Dd2. Nature of the series: Inhibition of in vitro P. falciparum culture, [3H]-hypoxanthine uptake, Dd2. It counts as cell-based. The conditions noted are these: for EC50: read-out: Dd2 EC50; for IC50: read-out: Dd2 IC50. The procedure, abridged: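 Parasite growth inhibition measured as relative reduction of [3H]-hypoxanthine uptake in in vitro cultures. Values from non-linear regression fit, using relative growth velocity in place of product-formation rate.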

Where [2] appears, read: aqueous buffer, thermodynamic from solid, read-out: Solubility.
Where [3] appears, read: Table 3, DCIP assay, 20 nM pfDHODH.
The mark [4] stands for this setting: Table 3, [3H]-hypoxanthine uptake.
[5] abbreviates: Plasmodium falciparum, DD2, Table 2b.
Where [6] appears, read: Plasmodium falciparum, DD2, Table 3, [3H]-hypoxanthine uptake.

pfDHODH, sequence (Q08210 159-565 limits assumed): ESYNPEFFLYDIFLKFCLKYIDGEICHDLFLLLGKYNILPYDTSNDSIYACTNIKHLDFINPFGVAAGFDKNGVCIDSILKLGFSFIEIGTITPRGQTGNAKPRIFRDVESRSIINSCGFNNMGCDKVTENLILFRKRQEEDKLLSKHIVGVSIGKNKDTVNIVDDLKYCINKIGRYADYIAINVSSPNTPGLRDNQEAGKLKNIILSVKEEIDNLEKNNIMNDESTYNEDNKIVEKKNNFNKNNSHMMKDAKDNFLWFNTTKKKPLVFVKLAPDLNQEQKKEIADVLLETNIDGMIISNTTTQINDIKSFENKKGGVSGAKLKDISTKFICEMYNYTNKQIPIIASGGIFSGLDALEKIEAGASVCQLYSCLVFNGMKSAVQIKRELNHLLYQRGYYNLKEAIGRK

Consider `CCCNC(=O)c1ccc(-n2c(C)nc3ccccc32)s1` [Compound 12, 5-(2-methyl-1H-benzo[d]imidazol-1-yl)-N-propylthiophene-2-carboxamide], for which, in “Permeability”, the Papp (as a rule, the rate of passage across a membrane or cell layer, normalised by area and donor concentration) is 650 nm/s. For the same molecule, the logD (commonly lipophilicity at a set pH, counting ionised and neutral species) in “Log D measurement” (octanol/water, read-out: LogD) was determined as 3.4. For the same molecule, the solubility (commonly how much of the substance goes into solution per volume) in “Solubility measurement” (setting [2]) is above 30 µg/mL. In addition, the half-maximal inhibitory concentration (IC50) (in general, the concentration needed to halve the response being measured) was 0.172 µM on pfDHODH (Table 2b) and 0.17 µM on pfDHODH (setting [3]). The cytotoxic concentration (CC50) (as a rule, the concentration that lowers cell viability or growth by half) at 96 h in series [1] is above 62 µM.

Turning to “5-(1H-indol-1-yl)-N-propylthiophene-2-carboxamide [Compound 7]”, in the series “Permeability”, the Permeability was found to be 52 cm/sec × 10^−6. In the series “Log D measurement”, this molecule had a logD above 3.5. Moreover, the EC50 (usually the concentration at which the effect is half-maximal) with P. falciparum Dd2 (Table 2b) came to 1.03 µM. Further, the results for the IC50 with P. falciparum Dd2 (setting [4]), at pfDHODH (Table 2b) and on pfDHODH (setting [3]) were 0.23 µM, 0.459 µM and 0.46 µM, respectively. In “Solubility measurement”, the solubility is 1 µg/mL.

On to `CCCNC(=O)c1ccc(-n2cnc3ccccc32)s1` [Compound 11, 5-(1H-benzo[d]imidazol-1-yl)-N-propylthiophene-2-carboxamide], for which the Papp in the series “Permeability” was 320 nm/s. The logD in “Log D measurement” (octanol/water, read-out: LogD) worked out at 3.3. Moreover, in the series with P. falciparum Dd2 (setting [5]), the 50% effective concentration (EC50) was 1.1 µM. For the same molecule, the half-maximal inhibitory concentration (IC50) in the series on P. falciparum Dd2 (setting [6]) came out at 0.955 µM; with P. falciparum Dd2 (setting [4]), 1.25 µM; on pfDHODH (Table 2b), 0.703 µM; at pfDHODH (setting [3]), 0.7 µM. In “Solubility measurement” (setting [2]), the solubility is above 30 µg/mL. In series [1], this molecule had a cytotoxic concentration (CC50) at 96 h above 62 µM.

For `CCCNC(=O)c1ccc(-n2c(C)cc3ccccc32)s1` [Compound 1, 5-(2-methyl-1H-indol-1-yl)-N-propylthiophene-2-carboxamide], the logD in the series “Log D measurement” (octanol/water, read-out: LogD) is above 3.5. Also, the IC50 in the series with P. falciparum Dd2 (Plasmodium falciparum, DD2, Erythrocyte, [3H]-hypoxanthine uptake by parasite infected erythrocytes) was found to be 0.29 µM; in the series with P. falciparum Dd2 (setting [6]) it was 0.25 µM; at pfDHODH (DCIP assay, 200 μM L-DHO, 18 μM CoQD, 100 μM DCIP, 20 nM enzyme), 0.042 ± 0.007 µM; on pfDHODH (Table 2b), 0.064 µM; at pfDHODH (setting [3]), 0.07 µM. For the same molecule, in the series on P. falciparum Dd2 (setting [5]), the EC50 was determined as 0.493 µM. Further, the solubility in the series “Solubility measurement” (setting [2]) stood at 0.9 µg/mL (≈ 3.02 µM). Also, the inhibition (usually the relative decrease from the control value, in per cent) at 50 µM at pfDHODH (50 μM inhibitor, 200 μM L-DHO, 100 μM CoQD, 60 μM DCIP, read-out: % Inhibition of Product Formation Rate with 50 μM Inhibitor, CoQD) came out at 104%. In series [1], this molecule gave a CC50 at 96 h above 62 µM.
